Data on two compounds can be found in US12281125B2, “Rapamycin derivatives” (NOVARTIS AG, priority 2018, dated 2025).

Experiment [1] has as its system mTORC1 activity, S6K1 (Thr389) in FKBP12/12.6/25/52/51 knock-out 293T cells. Put plainly: S6K1(Thr389) phosphorylation ELISA in FKBP12/12.6/25/52/51 knock-out 293T cells. The experiment is classed as cell-based. An excerpt: (§1) A CRISPR/Cas9 system was used to deliver ribonucleoprotein complexes containing guide RNA (gRNA) sequences that target FKBP12
(§2) ([…], location 35620248) into 293T cells, using the Amaxa® 4D-Nucleofector™ X Kit (Lonza, V4XC-2032). Cell clones were screened by immunoblotting with anti-FKBP-specific antibodies: FKBP12 (Novus, NB300-508), FKBP12.6 (Abnova, H00002281-M01), FKBP13 (R&D Systems, MAB4356), FKBP25 (R&D Systems, MAB3955), FKBP52 (Cell signaling Technology, #11826) and FKBP51 (Cell signaling Technology, #12210). […] Quintuple FKBP12/12.6/13/52/51 knock-out and FKBP12/12.6/25/52/51 knock-out cells were generated by sequentially knocking out five FKBP genes.
(§3) WT, FKBP12 knock-out, FKBP12/12.6/13/52/51 knock-out or FKBP12/12.6/25/52/51 knock-out 293T cells were plated at a density of 30,000 cells per well in poly-D-Lysine coated 96-well plates (Corning, #354461) in Dulbecco's modified Eagle's medium (ThermoFisher, #11995-065) supplemented with 10% fetal bovine serum (ThermoFisher, #16140-071). Cells were incubated at 37° C., 5% CO2 for 48 hours until they reached ˜80% confluence. […] Media supplemented with blank Dimethyl sulfoxide (DMSO) was used as a control for both compounds. Phosphorylated amounts of S6K1 (Thr389) were detected by a sandwich ELISA kit (Cell signaling, #7063C) following the manufacture's protocol.
A general note: ELISA stands for enzyme-linked immunosorbent assay.

Experiment [2] has as its target T1, FKBP13-rapalog-mTOR (amino acids 2019-2112) ternary complex (Homo sapiens, UniProt P26885+P42345).
T1 construct: his^6-mTOR (amino acids 2019-2112) was diluted in buffer; made in house; host or cells: E. coli
As to the kind of experiment: SPR ternary complex formation, rapalog bound to FKBP13 with mTOR. It counts as binding. The note with it: rapalog bound to FKBP with mTOR, read-out: FKBP13 apparent affinity KD for ternary complex formation. The procedure:
(§4) N-terminal avi-his6-tagged FKBP fusion proteins were expressed in E. coli and purified with nickel chromatography using standard procedures. Biotinylated his-avi-FKBPs were immobilized on a streptavidin chip using a Biacore 8K (GE Healthcare). To determine the kinetics-affinity of the rapalogs for FKBPs, rapalogs were diluted in DMSO to 50× working concentration. Next, 3.1 uLs of each rapalog solution was added to 150 uLs of buffer (50 mM Tris pH 7.5/150 mM NaCl/0.01% Tween 20/1 mM DTT) in a 384 deep well plate (greiner bio-one/78127) and mixed using a Biomek FX. The rapalog solution gradients (6 concentrations/2 fold dilutions, 3.1-100 nM or 31-1000 nM or 310-10000 nM) were then injected at 45 uL/min for 120 seconds: contact time and dissociation time was 1800 seconds in running buffer (50 mM Tris pH 7.5/150 mM NaCl/0.01% Tween 20/1 mM DTT/2% DMSO). The single-cycle kinetics data were fit to a 1:1 binding model to measure the association rate ka (1/Ms), the dissociation rate kd (1/s) and the affinity KD (M). […] 3.1 uLs of the 500 μM rapalog solutions were added to 150 uLs of the mTOR samples in a 384 deep well plate (greiner bio-one/78127) and mixed using a Biomek FX. The mTOR solution gradients were then injected at 45 uL/min for 120 seconds: contact time and dissociation time was 1800 seconds in running buffer (50 mM Tris pH 7.5/150 mM NaCl/0.01% Tween 20/1 mM DTT/2% DMSO). […]

The next experiment has as its target T2, FKBP52 (Homo sapiens, UniProt Q02790).
T2 construct: made in house; host or cells: E. coli
T2 sequence (Q02790 1-459): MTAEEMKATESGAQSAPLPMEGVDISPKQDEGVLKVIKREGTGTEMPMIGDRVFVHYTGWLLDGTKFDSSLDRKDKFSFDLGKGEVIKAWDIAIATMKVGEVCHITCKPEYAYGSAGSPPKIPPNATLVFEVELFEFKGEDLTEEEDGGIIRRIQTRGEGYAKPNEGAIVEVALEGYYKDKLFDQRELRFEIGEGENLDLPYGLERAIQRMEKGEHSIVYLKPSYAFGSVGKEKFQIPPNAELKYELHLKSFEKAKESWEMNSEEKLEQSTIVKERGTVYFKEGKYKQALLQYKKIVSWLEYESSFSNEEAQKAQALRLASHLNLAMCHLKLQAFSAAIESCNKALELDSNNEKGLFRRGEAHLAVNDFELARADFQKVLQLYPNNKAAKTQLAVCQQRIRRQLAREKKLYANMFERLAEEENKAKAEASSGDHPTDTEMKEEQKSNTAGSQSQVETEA
Put plainly: SPR assay, binding affinity to FKBP52. Particulars: equilibrium dissociation constant. The procedure:
N-terminal avi-his6-tagged FKBP fusion proteins were expressed in E. coli and purified with nickel chromatography using standard procedures. Biotinylated his-avi-FKBPs were immobilized on a streptavidin chip using a Biacore 8K (GE Healthcare). To determine the kinetics-affinity of the rapalogs for FKBPs, rapalogs were diluted in DMSO to 50× working concentration. Next, 3.1 uLs of each rapalog solution was added to 150 uLs of buffer (50 mM Tris pH 7.5/150 mM NaCl/0.01% Tween 20/1 mM DTT) in a 384 deep well plate (greiner bio-one/78127) and mixed using a Biomek FX. The rapalog solution gradients (6 concentrations/2 fold dilutions, 3.1-100 nM or 31-1000 nM or 310-10000 nM) were then injected at 45 uL/min for 120 seconds: contact time and dissociation time was 1800 seconds in running buffer (50 mM Tris pH 7.5/150 mM NaCl/0.01% Tween 20/1 mM DTT/2% DMSO). The single-cycle kinetics data were fit to a 1:1 binding model to measure the association rate ka (1/Ms), the dissociation rate kd (1/s) and the affinity KD (M). […] 3.1 uLs of the 500 μM rapalog solutions were added to 150 uLs of the mTOR samples in a 384 deep well plate (greiner bio-one/78127) and mixed using a Biomek FX. The mTOR solution gradients were then injected at 45 uL/min for 120 seconds: contact time and dissociation time was 1800 seconds in running buffer (50 mM Tris pH 7.5/150 mM NaCl/0.01% Tween 20/1 mM DTT/2% DMSO). The single-cycle kinetics data was fit to a 1:1 binding model to measure the association rate ka (1/Ms), the dissociation rate kd (1/s) and the apparent affinity KD (M) for ternary complex formation.
The equilibrium dissociation constants (KD) to FKBP12, FKBP51, and FKBP52 are shown below in Table 6.

For experiment [3], the target named is T3, FKBP52-rapalog-mTOR (amino acids 2019-2112) ternary complex (Homo sapiens, UniProt P42345+Q02790).
T3 construct: his^6-mTOR (amino acids 2019-2112) was diluted in buffer; made in house; host or cells: E. coli
Put plainly: SPR ternary complex formation, rapalog bound to FKBP52 with mTOR. The note with it: rapalog bound to FKBP with mTOR, read-out: FKBP52 apparent affinity KD for ternary complex formation. The experiment is classed as binding. As for the experimental part:
as §4

Experiment [4] concerns mTORC1 activity, S6K1 (Thr389) in FKBP12 knock-out 293T cells. Put plainly: S6K1(Thr389) phosphorylation ELISA in FKBP12 knock-out 293T cells. The note with it: 2 hours. The experiment is classed as cell-based.
Source text: as §1, §2, §3

For experiment [5], the target named is T4, FKBP25-rapalog-mTOR (amino acids 2019-2112) ternary complex (Homo sapiens, UniProt P42345+Q00688).
T4 construct: his^6-mTOR (amino acids 2019-2112) was diluted in buffer; made in house; host or cells: E. coli
As to the kind of experiment: SPR ternary complex formation, rapalog bound to FKBP25 with mTOR. It counts as binding. Particulars: rapalog bound to FKBP with mTOR, read-out: FKBP25 apparent affinity KD for ternary complex formation. The procedure:
as §4

T3 sequence (P42345 2019-2112 limits assumed, one chain of several): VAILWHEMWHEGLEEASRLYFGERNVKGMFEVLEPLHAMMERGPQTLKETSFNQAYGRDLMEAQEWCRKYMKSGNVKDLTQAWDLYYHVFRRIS
T1 sequence (P26885 22-142): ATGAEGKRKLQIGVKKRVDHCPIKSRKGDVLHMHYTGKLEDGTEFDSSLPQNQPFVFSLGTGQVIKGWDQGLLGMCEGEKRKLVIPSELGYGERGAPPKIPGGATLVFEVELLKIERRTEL
T1 sequence (P42345 2019-2112 limits assumed): as the sequence (P42345 2019-2112 limits assumed, one chain of several) above
T4 sequence (Q00688 whole entry, the tested form may be a part): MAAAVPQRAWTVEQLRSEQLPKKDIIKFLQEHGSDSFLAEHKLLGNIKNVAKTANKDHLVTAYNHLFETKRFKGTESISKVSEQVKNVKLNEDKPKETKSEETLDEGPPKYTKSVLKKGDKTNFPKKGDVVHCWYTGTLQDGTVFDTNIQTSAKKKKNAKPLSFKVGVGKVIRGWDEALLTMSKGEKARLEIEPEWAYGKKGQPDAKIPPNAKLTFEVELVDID
T4 sequence (P42345 2019-2112 limits assumed): as the sequence (P42345 2019-2112 limits assumed, one chain of several) above

`CO[C@@H]1C[C@H](C[C@@H](C)[C@@H]2CC[C@H](C)/C=C(\C)[C@@H](O)[C@@H](OC)C(=O)[C@H](C)C[C@H](C)/C=C/C=C/C=C(\C)[C@@H](NS(C)(=O)=O)C[C@@H]3CC[C@@H](C)[C@@](O)(O3)C(=O)C(=O)N3CCCC[C@H]3C(=O)O2)CC[C@H]1O` [Compound 2]: the “inhibitory effect (potency) on S6K1 (Thr389), in words” value in experiment [1] was “neither RAD001 nor Compound 2 were efficacious”. In addition, the Kd was 127 nM in experiment [2], 374 nM on FKBP52, 36 nM in experiment [3] and 2 nM in experiment [5]. Also, in experiment [4], the “de-phosphorylation of S6K1(Thr389)” value is recorded as roughly 70%.
Turning to `CO[C@H]1C[C@@H]2CC[C@@H](C)[C@@](O)(O2)C(=O)C(=O)N2CCCC[C@H]2C(=O)O[C@H]([C@H](C)C[C@@H]2CC[C@@H](OCCO)[C@H](OC)C2)CC(=O)[C@H](C)/C=C(\C)[C@@H](O)[C@@H](OC)C(=O)[C@H](C)C[C@H](C)/C=C/C=C/C=C/1C` [RAD001, everolimus, reference compound], the “inhibitory effect (potency) on S6K1 (Thr389), in words” value in experiment [1] is “neither RAD001 nor Compound 2 were efficacious”. Moreover, the Kd was 21 nM in experiment [2], 1770 nM at FKBP52, 253 nM in experiment [3] and 75 nM in experiment [5]. The “de-phosphorylation of S6K1(Thr389)” value in experiment [4] is on record as roughly 40%.
